Where a SMILES comes first, the peptide text is derived from it. [ ]: non-standard residue; d: D form. Nspe = C[C@H](NCC(=O)O)c1ccccc1; NhArg = N=C(N)NCCCCNCC(=O)O; Nlys = NCCCCNCC(=O)O
Columns and labels:
Format in all cases: cell-based
[1] = tested on: S. aureus (NCTC 6571) biofilm; assay: Single species biofilm treatment, crystal violet assay; details: 100 μM peptoid, 24 hours, FIG. 17B
Protocol: (§1) C. albicans (NCTC 3179) was subcultured aerobically on Sabouraud agar plates and propagated in yeast peptone dextrose broth. E. coli (ATCC 29522) and S. aureus (NCTC 6571) were grown on blood agar plates and propagated in brain heart infusion (BHI) broth.
(§2) Overnight cultures of C. albicans were washed and resuspended in a modified RPMI-1640 (Sigma-Aldrich, St Louis, USA) medium to yield an inoculum of 1.0×10^6 cells/ml. Overnight cultures of S. aureus or E. coli were washed and resuspended in brain heart infusion broth (Oxoid, Basingstoke, UK) to yield an inoculum of 5.0×10^6 cells/ml. A total volume of 100 μl of each inoculum was added to microtitre plate wells (Thermo Fisher Scientific, Roskilde, Denmark). An initial biofilm was allowed to form for 4 hours. Wells were washed three times with 200 μl PBS to facilitate removal of planktonic cells and the biofilms were then treated with 100 μM of peptoids 1-4 in the appropriate broth. Plates were incubated for a further 24 hours to allow biofilm maturation. After removal of planktonic cells by washing, biofilms were quantified by the crystal violet assay or by PMA-qPCR.
(§3) Biofilm quantification by crystal violet assay Washed biofilms were fixed with 100 μl methanol for 10 minutes. Following removal of methanol, the wells were air dried and stained with crystal violet solution (Clin-Tech Ltd, Guildford, UK) for 20 minutes at room temperature. Excess stain was removed by washing, the plate was then air dried and bound crystal violet was re-solubilised in 16 μl 33% acetic acid prior to reading at 570 nm in a microtitre plate reader (Tecan GENios, Ziirich, Switzerland).

[2] = tested on: Leishmania mexicana (M379); details: for IC50: parasite stage not given, read-out: IC50 L. mexicana; for active against L. mexicana: statement in words
Protocol: Leishmania mexicana (M379) promastigote parasites were maintained at 26° C. in Schneider's Insect medium (Sigma-Aldrich) supplemented with heat-inactivated foetal bovine sera (FBS, 15%; Biosera Ltd). Cells were counted using a Neubauer Improved Haemocytometer. Promastigotes were transformed into axenic amastigotes by a pH and temperature shift as previously described. A culture of recently transformed (three days) promastigotes in the late log phase was transferred into Schneider's Insect medium supplemented with 20% heat-inactivated FBS (pH 5.5) at 5×10^5 parasites/mL. After 6 days, the parasites were in the metacyclic stage and used for transformation to amastigote-like forms by transfer in the same medium at 32° C. at 5×10^5 parasites/mL. After additional 5-7 days, the parasites should be in the amastigote stage and be ready for cytotoxicity studies and infections.
Cytotoxicity analyses were performed in 96-well plates (Costar, Fisher Scientific) using Alamar Blue (Invitrogen) for cell viability detection as previously described.
Promastigote and amastigote L. mexicana were pre-incubated with the compounds in triplicate (5 mM stock solutions in DMSO; Amphotericin B was used as a positive control; untreated parasites with DMSO as a negative control) in 50 μl of the corresponding media at 4×106 mL-1 for 1 hour. Afterwards, 40 μl were removed from each well before the addition of 90 μl of the corresponding media, followed by incubation for 24 hours at 4×105 mL-1. Then, 10 μl Alamar Blue solution (Invitrogen) was added to each well for an incubation of 4 hours prior to assessing cell viability using a fluorescent plate reader (Biotek; Ex 560 nm/Em 600 nm). To investigate the effects of serum on the efficacy of the peptoids, the assay described above was modified using serum-free medium for the pre-incubation time. For these assays, the parasites were washed three times in serum-free medium before adding them to the compound solutions. All of the experiments described above were carried out on a minimum of two separate occasions to ensure a robust data set was collected.

[3] = tested on: Trypanosoma brucei rhodesiense STIB900; details: for IC50: 70 h; for active against T. brucei rhodesiense: statement in words
Protocol: This stock was isolated in 1982 from a human patient in Tanzania and after several mouse passages cloned and adapted to axenic culture conditions. Minimum Essential Medium (50 μl) supplemented with 25 mM HEPES, 1 g/l additional glucose, 1% MEM non-essential amino acids (100×), 0.2 mM 2-mercaptoethanol, 1 mM Na-pyruvate and 15% heat inactivated horse serum was added to each well of a 96-well microtiter plate. Serial drug dilutions of eleven 3-fold dilution steps covering a range from 100 to 0.002 μg/ml were prepared. Then 4×10^3 bloodstream forms of T. b. rhodesiense STIB 900 in 50 μl was added to each well and the plate incubated at 37° C. under a 5% CO2 atmosphere for 70 h. 10 μl Alamar Blue (resazurin, 12.5 mg in 100 ml double-distilled water) was then added to each well and incubation continued for a further 2-4 h. Then the plates were read with a Spectramax Gemini XS microplate fluorometer (Molecular Devices Cooperation, Sunnyvale, Calif., USA) using an excitation wave length of 536 nm and an emission wave length of 588 nm. The IC50 values were calculated by linear regression from the sigmoidal dose inhibition curves using SoftmaxPro software (Molecular Devices Cooperation, Sunnyvale, Calif., USA). Melarsoprol (Arsobal Sanofi-Aventis, received from WHO) is used as control.

[4] = tested on: E. coli (ATCC 29522) biofilm; assay: Single species biofilm treatment, crystal violet assay; details: 100 μM peptoid, 24 hours, FIG. 17C
Protocol: as §1, §2, §3

SMILES	activity against the S. aureus biofilm [1]	IC50 [2] [µM]	active against L. mexicana [2]	IC50 [3] [µM]	active against T. brucei rhodesiense [3]	activity against the E. coli biofilm [4]
C[C@@H](c1ccccc1)N(CC(N)=O)C(=O)CN(C(=O)CN(CCCCNC(=N)N)C(=O)CN(C(=O)CN(C(=O)CN(CCCCNC(=N)N)C(=O)CN(C(=O)CN(C(=O)CN(CCCCN)C(=O)CN(C(=O)CN(C(=O)CNCCCCN)[C@@H](C)c1ccccc1)[C@@H](C)c1ccccc1)[C@@H](C)c1ccccc1)[C@@H](C)c1ccccc1)[C@@H](C)c1ccccc1)[C@@H](C)c1ccccc1)[C@@H](C)c1ccccc1 [Peptoid 1, (NLys-Nspe-Nspe)2(NhArg-Nspe-Nspe)2] (H-[Nlys][Nspe][Nspe][Nlys][Nspe][Nspe][NhArg][Nspe][Nspe][NhArg][Nspe][Nspe]-NH2; N-terminus assumed)	strongest anti-bacterial activity	37	active	6.73	active	–
C[C@@H](c1ccccc1)N(CC(N)=O)C(=O)CN(C(=O)CN(CCCCN)C(=O)CN(C(=O)CN(C(=O)CN(CCCCNC(=N)N)C(=O)CN(C(=O)CN(C(=O)CN(CCCCN)C(=O)CN(C(=O)CN(C(=O)CNCCCCNC(=N)N)[C@@H](C)c1ccccc1)[C@@H](C)c1ccccc1)[C@@H](C)c1ccccc1)[C@@H](C)c1ccccc1)[C@@H](C)c1ccccc1)[C@@H](C)c1ccccc1)[C@@H](C)c1ccccc1 [Peptoid 4, [(NhArg-Nspe-Nspe)(NLys-Nspe-Nspe)]2] (H-[NhArg][Nspe][Nspe][Nlys][Nspe][Nspe][NhArg][Nspe][Nspe][Nlys][Nspe][Nspe]-NH2; N-terminus assumed)	–	37	active	16.7	active	strongest anti-bacterial activity

— patent US20180201647A1, “Peptoid” (The University of Durham, priority 2015, published 2018)
